In patent US9139529B2, “Substituted quinoxalines as sodium channel modulators” (VERTEX PHARMACEUTICALS INCORPORATED, priority 2013, dated 2015):

Molecular target: human Nav1.8 (Homo sapiens (Human), UniProt Q9Y5Y9)
Assay: E-VIPR optical membrane potential assay with electrical stimulation
Format: cell-based
Conditions: HEK cells expressing human Nav1.8
Source text: Assays for Detecting and Measuring NaV Inhibition Properties of Compounds E-VIPR Optical Membrane Potential Assay Method with Electrical Stimulation
Sodium channels are voltage-dependent proteins that can be activated by inducing membrane voltage changes by applying electric fields. The electrical stimulation instrument and methods of use are described in Ion Channel Assay Methods PCT/US01/21652, herein incorporated by reference and are referred to as E-VIPR. The instrument comprises a microtiter plate handler, an optical system for exciting the coumarin dye while simultaneously recording the coumarin and oxonol emissions, a waveform generator, a current- or voltage-controlled amplifier, and a device for inserting electrodes in well. Under integrated computer control, this instrument passes user-programmed electrical stimulus protocols to cells within the wells of the microtiter plate.
24 hours before the assay on E-VIPR, HEK cells expressing human Nav1.8 were seeded in 384-well poly-lysine coated plates at 15,000-20,000 cells per well. HEK cells were grown in media (exact composition is specific to each cell type and NaV subtype) supplemented with 10% FBS (Fetal Bovine Serum, qualified; GibcoBRL #16140-071) and 1% Pen-Strep (Penicillin-Streptomycin; GibcoBRL #15140-122). Cells were grown in vented cap flasks, in 90% humidity and 5% CO2.
1) Pre-spotted compounds (in neat DMSO) into compound plates. Vehicle control (neat DMSO), the positive control (20 mM DMSO stock tetracaine, 125 μM final in assay) and test compounds were added to each well at 160× desired final concentration in neat DMSO. Final compound plate volume was 80 μL (80-fold intermediate dilution from 1 μL DMSO spot; 160-fold final dilution after transfer to cell plate). Final DMSO concentration for all wells in assay was 0.625%.
2) Prepared Hexyl Dye Solution.
3) Prepared cell plates. On the day of the assay, medium was aspirated and cells were washed three times with 100 μL of Bath1 Solution, maintaining 25 μL residual volume in each well.
4) Dispensed 25 μL per well of Hexyl Dye Solution into cell plates. Incubated for 20-35 minutes at room temp or ambient conditions.
5) Dispensed 80 μL per well of Bath1 into compound plates. Acid Yellow-17 (1 mM) was added and Potassium Chloride was altered from 4.5 to 20 mM depending on the NaV subtype and assay sensitivity.
6) Washed cell plates three times with 100 μL per well of Bath1, leaving 25 μL of residual volume. Then transferred 25 uL per well from Compound Plates to Cell Plates. Incubated for 20-35 minutes at room temp/ambient condition.
7) Read Plate on E-VIPR. Used the current-controlled amplifier to deliver stimulation wave pulses for 10 seconds and a scan rate of 200 Hz. A pre-stimulus recording was performed for 0.5 seconds to obtain the un-stimulated intensities baseline. The stimulatory waveform was followed by 0.5 seconds of post-stimulation recording to examine the relaxation to the resting state.
Data was analyzed and reported as normalized ratios of emission intensities measured in the 460 nm and 580 nm channels. The response as a function of time was reported as the ratios obtained using the following formula: […]
The data was further reduced by calculating the initial (Ri) and final (Rf) ratios. These were the average ratio values during part or all of the pre-stimulation period, and during sample points during the stimulation period. The response to the stimulus R=Rf/Ri was then calculated and reported as a function of time.
Control responses were obtained by performing assays in the presence of a compound with the desired properties (positive control), such as tetracaine, and in the absence of pharmacological agents (negative control). Responses to the negative (N) and positive (P) controls were calculated as above. The compound antagonist activity A is defined as:
[formula] where R is the ratio response of the test compound

human Nav1.8, sequence (Q9Y5Y9 whole entry): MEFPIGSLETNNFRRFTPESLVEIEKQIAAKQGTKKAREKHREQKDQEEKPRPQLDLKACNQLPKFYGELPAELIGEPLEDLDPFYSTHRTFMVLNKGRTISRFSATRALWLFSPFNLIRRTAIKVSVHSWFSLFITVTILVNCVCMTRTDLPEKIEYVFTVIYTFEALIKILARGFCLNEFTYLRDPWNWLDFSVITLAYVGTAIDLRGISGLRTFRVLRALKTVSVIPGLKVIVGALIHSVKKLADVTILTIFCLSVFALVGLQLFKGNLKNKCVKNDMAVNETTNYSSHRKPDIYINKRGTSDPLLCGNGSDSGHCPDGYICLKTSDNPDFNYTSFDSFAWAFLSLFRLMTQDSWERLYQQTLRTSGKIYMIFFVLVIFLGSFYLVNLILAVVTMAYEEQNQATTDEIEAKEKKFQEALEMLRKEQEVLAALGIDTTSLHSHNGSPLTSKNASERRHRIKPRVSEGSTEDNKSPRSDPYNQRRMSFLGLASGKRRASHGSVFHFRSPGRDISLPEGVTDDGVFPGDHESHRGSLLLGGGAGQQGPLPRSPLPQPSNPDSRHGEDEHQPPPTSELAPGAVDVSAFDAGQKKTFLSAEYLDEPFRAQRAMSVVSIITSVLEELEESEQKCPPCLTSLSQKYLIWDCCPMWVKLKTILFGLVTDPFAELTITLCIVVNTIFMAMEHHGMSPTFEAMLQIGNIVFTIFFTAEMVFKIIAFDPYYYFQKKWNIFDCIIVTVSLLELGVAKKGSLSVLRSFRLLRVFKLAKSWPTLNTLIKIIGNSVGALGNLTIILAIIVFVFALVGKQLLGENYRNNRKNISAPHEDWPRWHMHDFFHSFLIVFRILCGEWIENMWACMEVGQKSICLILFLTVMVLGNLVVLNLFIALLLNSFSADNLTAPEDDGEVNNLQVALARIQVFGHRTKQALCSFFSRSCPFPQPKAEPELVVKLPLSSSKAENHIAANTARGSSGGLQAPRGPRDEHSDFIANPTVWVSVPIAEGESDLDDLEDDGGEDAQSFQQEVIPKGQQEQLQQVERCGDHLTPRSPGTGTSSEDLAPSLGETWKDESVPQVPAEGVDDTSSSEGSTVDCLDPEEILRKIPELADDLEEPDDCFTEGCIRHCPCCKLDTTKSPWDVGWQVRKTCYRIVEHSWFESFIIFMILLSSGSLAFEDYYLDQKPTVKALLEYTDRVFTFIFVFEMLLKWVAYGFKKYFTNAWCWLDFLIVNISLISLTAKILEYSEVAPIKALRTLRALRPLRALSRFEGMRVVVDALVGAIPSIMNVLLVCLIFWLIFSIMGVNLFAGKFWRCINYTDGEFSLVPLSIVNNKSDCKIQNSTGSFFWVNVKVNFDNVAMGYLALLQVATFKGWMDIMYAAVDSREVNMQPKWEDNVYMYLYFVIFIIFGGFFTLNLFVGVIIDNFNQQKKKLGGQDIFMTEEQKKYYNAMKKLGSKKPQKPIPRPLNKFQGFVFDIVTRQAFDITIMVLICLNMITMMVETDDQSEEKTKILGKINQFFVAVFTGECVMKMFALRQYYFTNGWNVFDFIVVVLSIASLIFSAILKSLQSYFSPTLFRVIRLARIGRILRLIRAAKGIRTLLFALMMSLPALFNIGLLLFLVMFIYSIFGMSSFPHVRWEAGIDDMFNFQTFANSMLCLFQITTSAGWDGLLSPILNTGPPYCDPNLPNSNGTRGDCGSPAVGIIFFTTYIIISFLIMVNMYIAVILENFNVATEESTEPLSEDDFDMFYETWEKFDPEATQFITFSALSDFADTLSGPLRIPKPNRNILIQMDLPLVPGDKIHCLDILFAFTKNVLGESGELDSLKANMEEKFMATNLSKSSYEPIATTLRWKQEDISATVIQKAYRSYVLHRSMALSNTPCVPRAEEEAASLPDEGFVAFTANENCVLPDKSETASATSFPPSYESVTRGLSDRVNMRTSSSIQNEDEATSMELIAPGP

IC50 | Structure (SMILES)
2 nM | NS(=O)(=O)c1cccc(NC(=O)c2cc3ccccc3nc2Oc2ccc(F)cc2Cl)c1 [Compound 66, 2-(2-chloro-4-fluorophenoxy)-N-(3-sulfamoylphenyl)quinoline-3-carboxamide]
130 nM | COc1cc(F)ccc1Oc1nc2ccccc2nc1C(=O)Nc1ccc2cn[nH]c2c1 [Compound 47, 3-(4-fluoro-2-methoxyphenoxy)-N-(1H-indazol-6-yl)quinoxaline-2-carboxamide]
86 nM | Cc1cc(F)ccc1Oc1nc2ccccc2nc1C(=O)Nc1ccc(C(=O)O)nc1 [Compound 19, 5-(3-(4-fluoro-2-methylphenoxy)quinoxaline-2-carboxamido)picolinic acid]
4 nM | COc1ccc(Oc2nc3ccccc3nc2C(=O)Nc2cccc(S(N)(=O)=O)c2)c(Cl)c1 [Compound 4, 3-(2-chloro-4-methoxyphenoxy)-N-(3-sulfamoylphenyl)quinoxaline-2-carboxamide]
96 nM | COc1cc(F)ccc1Oc1nc2ccccc2nc1C(=O)Nc1ccc2[nH]nnc2c1 [Compound 42, N-(1H-benzo[d][1,2,3]triazol-5-yl)-3-(4-fluoro-2-methoxyphenoxy)quinoxaline-2-carboxamide]
61 nM | NS(=O)(=O)c1cccc(NC(=O)c2cc3ccccc3nc2Oc2ccc(OCC(F)(F)F)cc2)c1 [Compound 67, N-(3-sulfamoylphenyl)-2-(4-(2,2,2-trifluoroethoxy)phenoxy)quinoline-3-carboxamide]
86 nM | COc1cc(F)ccc1Oc1nc2ccccc2nc1C(=O)Nc1ccc2[nH]ncc2c1 [Compound 48, 3-(4-fluoro-2-methoxyphenoxy)-N-(1H-indazol-5-yl)quinoxaline-2-carboxamide]
